Measured values reported in patent publication US20100311751A1, “SOLID DISPERSIONS CONTAINING AN APOPTOSIS-PROMOTING AGENT” (ABBOTT LABORATORIES, priority 2009, published 2010).

Assay: solubility in water
Format: physicochemical
Settings: pH 2
Description: Examples of such active ingredients are, for example, Biopharmaceutics Classification System (BCS) Class IV drug substances that are characterized by low solubility and low permeability (see “Waiver of in vivo bioavailability and bioequivalence studies for immediate-release solid oral dosage forms based on a biopharmaceutics classification system”, U.S. Department of Health and Human Services, Food and Drug Administration, Center for Drug Evaluation and Research (CDER), August 2000). It will be recognized that aqueous solubility of many compounds is pH-dependent; in the case of such compounds the solubility of interest herein is at a physiologically relevant pH, for example a pH of about 1 to about 8.

Compound: CC1(C)CCC(c2ccc(Cl)cc2)=C(CN2CCN(c3ccc(C(=O)NS(=O)(=O)c4ccc(N[C@H](CCN5CCOCC5)CSc5ccccc5)c(S(=O)(=O)C(F)(F)F)c4)cc3)CC2)C1 [ABT-263]
- solubility in water: less than 4 μg/ml
